# Measurements taken from patent EP4635500A1, “THERAPEUTIC AGENT FOR BACTERIAL INFECTION” (Sumitomo Pharma Co., Ltd., priority 2022, dated 2024).
# Where two headings read alike, the source gives them in different places.
# Test system: Enterobacterales
# Test: MIC, broth microdilution, CDC/FDA Antibiotic Resistance Isolate Bank (Example 7, Tables 8, 11, 12)
# Type: cell-based
# Conditions: for MIC: read-out: MIC
smiles,measurement,setting,value
"O=C(O)c1cn(C2CC2)c2cc(N3CCNCC3)c(F)cc2c1=O [Ciprofloxacin, ciprofloxacin]",MIC80,"154 strains of Enterobacterales, read-out: MIC80",> 64 µg/mL
same,MIC90,"154 strains of Enterobacterales, read-out: MIC90",> 64 µg/mL
same,MIC,"Citrobacter freundii, KUB No. 5654, AR Bank # 157",> 64 µg/mL
same,MIC,"Escherichia coli, Escherichia coli KUB No. 5783, AR Bank #437",> 64 µg/mL
same,MIC,"Escherichia coli, Escherichia coli KUB No. 5794, AR Bank #450",0.06 µg/mL
same,MIC,"Escherichia coli, Escherichia coli KUB No. 5796, AR Bank #452",> 64 µg/mL
same,MIC,"Escherichia coli, KUB No. 5552, AR Bank# 55",> 64 µg/mL
same,MIC,"Escherichia coli, KUB No. 5558, AR Bank # 61",≤ 0.03 µg/mL
same,MIC,"Escherichia coli, KUB No. 5564, AR Bank # 67",> 64 µg/mL
same,MIC,"Escherichia coli, KUB No. 5566, AR Bank # 69",0.06 µg/mL
same,MIC,"Escherichia coli, KUB No. 5574, AR Bank # 77",≤ 0.03 µg/mL
same,MIC,"Escherichia coli, KUB No. 5582, AR Bank # 85",> 64 µg/mL
same,MIC,"Escherichia coli, KUB No. 5586, AR Bank # 89",≤ 0.03 µg/mL
same,MIC,"Escherichia coli, KUB No. 5616, AR Bank # 119",> 64 µg/mL
same,MIC,"Escherichia coli, KUB No. 5634, AR Bank # 137",> 64 µg/mL
same,MIC,"Escherichia coli, KUB No. 5764, AR Bank # 368",≤ 0.03 µg/mL
same,MIC,"Escherichia coli, KUB No. 5765, AR Bank # 369",0.06 µg/mL
same,MIC,"Escherichia coli, KUB No. 5766, AR Bank # 370",> 64 µg/mL
same,MIC,"Escherichia coli, KUB No. 5768, AR Bank # 372",> 64 µg/mL
same,MIC,"Escherichia coli, KUB No. 5770, AR Bank # 374",> 64 µg/mL
same,MIC,"Escherichia, KUB No. 57, AR Bank # 436 (row cut off)",> 64 µg/mL
same,MIC,"Klebsiella aerogenes, Enterobacter aerogenes, KUB No. 5559, AR Bank # 62",2 µg/mL
same,MIC,"Klebsiella aerogenes, Enterobacter aerogenes, KUB No. 5571, AR Bank # 74",0.06 µg/mL
same,MIC,"Klebsiella aerogenes, Enterobacter aerogenes, KUB No. 5658, AR Bank # 161",0.06 µg/mL
same,MIC,"Klebsiella aerogenes, Enterobacter aerogenes, KUB No. 5777, AR Bank # 431",1 µg/mL
same,MIC,"Klebsiella oxytoca, KUB No. 5644, AR Bank # 147",≤ 0.03 µg/mL
same,MIC,"Klebsiella oxytoca, KUB No. 5771, AR Bank # 375",≤ 0.03 µg/mL
same,MIC,"Klebsiella ozaenae, KUB No. 5548, AR Bank# 51",> 64 µg/mL
same,MIC,"Klebsiella pnemnonine, KUB No. 5758, AR Bank # 362",> 64 µg/mL
same,MIC,"Klebsiella pneumoniae, KUB No. 55, AR Bank# 47",> 64 µg/mL
same,MIC,"Klebsiella pneumoniae, KUB No. 5531, AR Bank# 34",0.5 µg/mL
same,MIC,"Klebsiella pneumoniae, KUB No. 5537, AR Bank# 40",> 64 µg/mL
same,MIC,"Klebsiella pneumoniae, KUB No. 5540, AR Bank# 43",4 µg/mL
same,MIC,"Klebsiella pneumoniae, KUB No. 5541, AR Bank# 44",> 64 µg/mL
same,MIC,"Klebsiella pneumoniae, KUB No. 5543, AR Bank# 46",> 64 µg/mL
same,MIC,"Klebsiella pneumoniae, KUB No. 5546, AR Bank# 49",> 64 µg/mL
same,MIC,"Klebsiella pneumoniae, KUB No. 5563, AR Bank # 66",> 64 µg/mL
same,MIC,"Klebsiella pneumoniae, KUB No. 5565, AR Bank # 68",> 64 µg/mL
same,MIC,"Klebsiella pneumoniae, KUB No. 5572, AR Bank # 75",> 64 µg/mL
same,MIC,"Klebsiella pneumoniae, KUB No. 5573, AR Bank # 76",0.5 µg/mL
same,MIC,"Klebsiella pneumoniae, KUB No. 5576, AR Bank # 79",> 64 µg/mL
same,MIC,"Klebsiella pneumoniae, KUB No. 5584, AR Bank # 87",> 64 µg/mL
same,MIC,"Klebsiella pneumoniae, KUB No. 5594, AR Bank # 97",> 64 µg/mL
same,MIC,"Klebsiella pneumoniae, KUB No. 5595, AR Bank # 98",> 64 µg/mL
same,MIC,"Klebsiella pneumoniae, KUB No. 5603, AR Bank # 106",> 64 µg/mL
same,MIC,"Klebsiella pneumoniae, KUB No. 5604, AR Bank # 107",> 64 µg/mL
same,MIC,"Klebsiella pneumoniae, KUB No. 5606, AR Bank # 109",> 64 µg/mL
same,MIC,"Klebsiella pneumoniae, KUB No. 5614, AR Bank # 117",8 µg/mL
same,MIC,"Klebsiella pneumoniae, KUB No. 5617, AR Bank # 120",> 64 µg/mL
same,MIC,"Klebsiella pneumoniae, KUB No. 5622, AR Bank # 125",> 64 µg/mL
same,MIC,"Klebsiella pneumoniae, KUB No. 5626, AR Bank # 129",> 64 µg/mL
same,MIC,"Klebsiella pneumoniae, KUB No. 5635, AR Bank # 138",> 64 µg/mL
same,MIC,"Klebsiella pneumoniae, KUB No. 5637, AR Bank # 140",> 64 µg/mL
same,MIC,"Klebsiella pneumoniae, KUB No. 5638, AR Bank # 141",> 64 µg/mL
same,MIC,"Klebsiella pneumoniae, KUB No. 5643, AR Bank # 146",> 64 µg/mL
same,MIC,"Klebsiella pneumoniae, KUB No. 5645, AR Bank # 148",> 64 µg/mL
same,MIC,"Klebsiella pneumoniae, KUB No. 5650, AR Bank # 153",> 64 µg/mL
same,MIC,"Klebsiella pneumoniae, KUB No. 5657, AR Bank # 160",0.06 µg/mL
same,MIC,"Klebsiella pneumoniae, KUB No. 5757, AR Bank # 361",> 64 µg/mL
same,MIC,"Klebsiella pneumoniae, KUB No. 5760, AR Bank # 364",> 64 µg/mL
same,MIC,"Klebsiella pneumoniae, Klebsiella pneumoniae KUB No. 5784, AR Bank #438",> 64 µg/mL
same,MIC,"Klebsiella pneumoniae, Klebsiella pneumoniae KUB No. 5797, AR Bank #453",> 64 µg/mL
same,MIC,"Klebsiella pneumoniae, Klebsiella pneumoniae KUB No. 5809, AR Bank #504",2 µg/mL
same,MIC,"Klebsiella pneumoniae, Klebsiella pneumoniae KUB No. 5810, AR Bank #505",0.5 µg/mL
same,MIC,"Klebsiella pneumoniae, Klebsiella pneumoniae KUB No. 5811, AR Bank #506",2 µg/mL
same,MIC,"Klebsiella pneumoniae, Klebsiella pneumoniae KUB No. 5812, AR Bank #507",> 64 µg/mL
same,MIC,"Klebsiella pneumoniae, Klebsiella pneumoniae KUB No. 5828, AR Bank #523",4 µg/mL
same,MIC,"Klebsiella pneumoniae, Klebsiella pneumoniae KUB No. 5830, AR Bank #525",> 64 µg/mL
same,MIC,"Kluyvera ascorbata, KUB No. 5641, AR Bank # 144",1 µg/mL
same,MIC,"Morganella morganii, KUB No. 5554, AR Bank# 57",> 64 µg/mL
same,MIC,"Morganella morganii, Morganella morganii KUB No. 5824, AR Bank #519",0.06 µg/mL
same,MIC,"Proteus mirabilis, KUB No. 5652, AR Bank # 155",> 64 µg/mL
same,MIC,"Proteus mirabilis, KUB No. 5653, AR Bank # 156",4 µg/mL
same,MIC,"Proteus mirabilis, KUB No. 5656, AR Bank # 159",1 µg/mL
same,MIC,"Proteus mirabilis, KUB No. 5775, AR Bank # 379",4 µg/mL
same,MIC,"Providencia rettgeri, KUB No. 5579, AR Bank # 82",0.06 µg/mL
same,MIC,"Serratia marcescens, KUB No. 5588, AR Bank # 91",0.06 µg/mL
same,MIC,"Serratia marcescens, KUB No. 5596, AR Bank # 99",0.06 µg/mL
same,MIC,"Serratia marcescens, KUB No. 5618, AR Bank # 121",0.06 µg/mL
same,MIC,"Serratia marcescens, KUB No. 5619, AR Bank # 122",0.06 µg/mL
same,MIC,"Serratia marcescens, KUB No. 5620, AR Bank # 123",0.06 µg/mL
same,MIC,"Serratia marcescens, KUB No. 5621, AR Bank # 124",0.06 µg/mL
same,MIC,"Serratia marcescens, KUB No. 5627, AR Bank # 130",0.06 µg/mL
same,MIC,"Serratia marcescens, KUB No. 5628, AR Bank # 131",0.06 µg/mL
same,MIC,"Serratia marcescens, Serratia marcescens KUB No. 5822, AR Bank #517",1 µg/mL
same,MIC,"Serratia marcescens, Serratia marcescens KUB No. 5825, AR Bank #520",1 µg/mL
